Usually melting point stands for the temperature, or range, at which the solid turns liquid. `COc1ccc(-c2cnc(SCC(=O)NCC[C@@H]3C[C@@H](Cc4ccc(Cl)c(Cl)c4)CN3)nc2)cc1OC.Cl` gave a melting point of 100.5 to 102.1 °C.

For the origin of these results see US6552028B2, “2,4-substituted pyrrolidine derivatives-CCR-3 receptor antagonists” (Syntex (U.S.A.) LLC, priority 2000, dated 2003).
